Measured values: publication PMC4490784, “Compensatory induction of MYC expression by sustained CDK9 inhibition via a BRD4-dependent mechanism” (eLife, 2015)

Experiments:
Test in all cases: KINOMEscan binding assay
CAMK1G = target: T1, CAMK1G (Homo sapiens, UniProt Q96NX5); conditions: read-out: % Retention on Solid Support
T1 construct: purchased DiscoveRx KINOMEscan
How it was run: (§1)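 Kinome-wide competition binding assay (active site-directed), i-CDK9 tested at 1 µM and 10 µM, >400 targets.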

CAMKK2 = target: T2, CAMKK2 (Homo sapiens, UniProt Q96RR4); conditions: read-out: % Retention on Solid Support
T2 construct: purchased DiscoveRx KINOMEscan
How it was run: as §1

CLK1 = target: T3, CLK1 (Homo sapiens, UniProt P49759); conditions: read-out: % Retention on Solid Support
T3 construct: purchased DiscoveRx KINOMEscan
How it was run: as §1

EPHB3 = target: T4, EPHB3 (Homo sapiens, UniProt P54753); conditions: read-out: % Retention on Solid Support
T4 construct: purchased DiscoveRx KINOMEscan
How it was run: as §1

ERBB2 = target: T5, ERBB2 (Homo sapiens, UniProt P04626); conditions: read-out: % Retention on Solid Support
T5 construct: purchased DiscoveRx KINOMEscan
How it was run: as §1

ERK5 = target: T6, ERK5 (Homo sapiens, UniProt Q13164); conditions: read-out: % Retention on Solid Support
T6 construct: purchased DiscoveRx KINOMEscan
How it was run: as §1

IKK-epsilon = target: T7, IKK-epsilon (Homo sapiens, UniProt Q14164); conditions: read-out: % Retention on Solid Support
T7 construct: purchased DiscoveRx KINOMEscan
How it was run: as §1

IRAK4 = IRAK4 (Homo sapiens, UniProt Q9NWZ3); conditions: 1 µM i-CDK9
How it was run: as §1

ITK = target: T8, ITK (Homo sapiens, UniProt Q08881)
T8 construct: purchased DiscoveRx KINOMEscan
How it was run: as §1

KIT(D816V) = target: T9, KIT(D816V) (Homo sapiens, UniProt P10721, D816V); conditions: read-out: % Retention on Solid Support
T9 construct: purchased DiscoveRx KINOMEscan
How it was run: as §1

KIT(L576P) = target: T10, KIT(L576P) (Homo sapiens, UniProt P10721, L576P); conditions: read-out: % Retention on Solid Support
T10 construct: purchased DiscoveRx KINOMEscan
How it was run: as §1

MAPKAPK5 = target: T11, MAPKAPK5 (Homo sapiens, UniProt Q8IW41); conditions: read-out: % Retention on Solid Support
T11 construct: purchased DiscoveRx KINOMEscan
T11 sequence (Q8IW41 1-473): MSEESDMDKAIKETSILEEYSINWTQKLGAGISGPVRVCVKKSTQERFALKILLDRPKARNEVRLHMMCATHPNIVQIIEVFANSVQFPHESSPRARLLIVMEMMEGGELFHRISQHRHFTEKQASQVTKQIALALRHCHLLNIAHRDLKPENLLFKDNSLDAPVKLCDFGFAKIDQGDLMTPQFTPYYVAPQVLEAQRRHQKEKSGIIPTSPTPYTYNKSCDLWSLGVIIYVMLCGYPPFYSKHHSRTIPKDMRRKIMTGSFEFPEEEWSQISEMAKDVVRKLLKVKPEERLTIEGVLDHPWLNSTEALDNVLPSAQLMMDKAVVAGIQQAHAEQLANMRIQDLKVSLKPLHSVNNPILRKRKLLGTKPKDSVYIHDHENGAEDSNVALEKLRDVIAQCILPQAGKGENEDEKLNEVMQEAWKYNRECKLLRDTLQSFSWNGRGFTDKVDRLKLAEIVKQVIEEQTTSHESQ
How it was run: as §1

NDR1 = target: T12, NDR1 (Homo sapiens, UniProt Q15208); conditions: read-out: % Retention on Solid Support
T12 construct: purchased DiscoveRx KINOMEscan
How it was run: as §1

NEK5 = target: T13, NEK5 (Homo sapiens, UniProt Q6P3R8); conditions: read-out: % Retention on Solid Support
T13 construct: purchased DiscoveRx KINOMEscan
How it was run: as §1

PAK2 = target: T14, PAK2 (Homo sapiens, UniProt Q13177); conditions: read-out: % Retention on Solid Support
T14 construct: purchased DiscoveRx KINOMEscan
How it was run: as §1

PIK3CA(M1043I) = target: T15, PIK3CA(M1043I) (Homo sapiens, UniProt P42336, M1043I); conditions: read-out: % Retention on Solid Support
T15 construct: purchased DiscoveRx KINOMEscan
How it was run: as §1

PLK4 = target: T16, PLK4 (Homo sapiens, UniProt O00444); conditions: read-out: % Retention on Solid Support
T16 construct: purchased DiscoveRx KINOMEscan
How it was run: as §1

RAF1 = target: T17, RAF1 (Homo sapiens, UniProt P04049); conditions: read-out: % Retention on Solid Support
T17 construct: purchased DiscoveRx KINOMEscan
How it was run: as §1

[1] = target: RPS6KA4(Kin.Dom.2-C-terminal) (Homo sapiens, UniProt O75676); conditions: read-out: % Retention on Solid Support
How it was run: as §1

[2] = target: RPS6KA5(Kin.Dom.2-C-terminal) (Homo sapiens, UniProt O75582); conditions: read-out: % Retention on Solid Support
How it was run: as §1

S6K1 = S6K1 (Homo sapiens, UniProt P23443); conditions: 1 µM i-CDK9; read-out: % Retention on Solid Support
How it was run: as §1

TNK1 = target: T18, TNK1 (Homo sapiens, UniProt Q13470); conditions: read-out: % Retention on Solid Support
T18 construct: purchased DiscoveRx KINOMEscan
How it was run: as §1

TYRO3 = target: T19, TYRO3 (Homo sapiens, UniProt Q06418); conditions: read-out: % Retention on Solid Support
T19 construct: purchased DiscoveRx KINOMEscan
How it was run: as §1

ULK1 = target: T20, ULK1 (Homo sapiens, UniProt O75385)
T20 construct: purchased DiscoveRx KINOMEscan
How it was run: as §1

T6 sequence (Q13164 whole entry): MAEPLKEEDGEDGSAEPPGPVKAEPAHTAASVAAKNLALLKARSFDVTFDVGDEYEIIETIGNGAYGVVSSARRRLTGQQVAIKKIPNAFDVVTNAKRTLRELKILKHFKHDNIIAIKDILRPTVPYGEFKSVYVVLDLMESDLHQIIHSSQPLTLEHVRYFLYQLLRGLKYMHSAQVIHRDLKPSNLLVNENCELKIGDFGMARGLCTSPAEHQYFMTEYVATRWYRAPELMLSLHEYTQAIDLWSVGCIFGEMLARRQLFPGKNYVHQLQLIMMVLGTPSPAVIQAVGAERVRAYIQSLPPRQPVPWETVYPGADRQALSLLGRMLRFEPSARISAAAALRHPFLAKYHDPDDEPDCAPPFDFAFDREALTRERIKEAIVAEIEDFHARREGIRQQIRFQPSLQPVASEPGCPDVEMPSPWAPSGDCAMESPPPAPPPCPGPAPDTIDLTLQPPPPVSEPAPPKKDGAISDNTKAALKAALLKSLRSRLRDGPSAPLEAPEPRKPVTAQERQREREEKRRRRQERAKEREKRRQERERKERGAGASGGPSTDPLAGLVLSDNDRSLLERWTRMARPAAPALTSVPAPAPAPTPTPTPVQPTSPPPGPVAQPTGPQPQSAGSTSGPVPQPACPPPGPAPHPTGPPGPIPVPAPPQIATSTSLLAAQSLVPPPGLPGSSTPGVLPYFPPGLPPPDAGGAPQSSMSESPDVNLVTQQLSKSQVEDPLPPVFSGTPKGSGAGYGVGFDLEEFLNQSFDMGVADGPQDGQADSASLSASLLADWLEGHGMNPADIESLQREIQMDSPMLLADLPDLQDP
T16 sequence (O00444 whole entry): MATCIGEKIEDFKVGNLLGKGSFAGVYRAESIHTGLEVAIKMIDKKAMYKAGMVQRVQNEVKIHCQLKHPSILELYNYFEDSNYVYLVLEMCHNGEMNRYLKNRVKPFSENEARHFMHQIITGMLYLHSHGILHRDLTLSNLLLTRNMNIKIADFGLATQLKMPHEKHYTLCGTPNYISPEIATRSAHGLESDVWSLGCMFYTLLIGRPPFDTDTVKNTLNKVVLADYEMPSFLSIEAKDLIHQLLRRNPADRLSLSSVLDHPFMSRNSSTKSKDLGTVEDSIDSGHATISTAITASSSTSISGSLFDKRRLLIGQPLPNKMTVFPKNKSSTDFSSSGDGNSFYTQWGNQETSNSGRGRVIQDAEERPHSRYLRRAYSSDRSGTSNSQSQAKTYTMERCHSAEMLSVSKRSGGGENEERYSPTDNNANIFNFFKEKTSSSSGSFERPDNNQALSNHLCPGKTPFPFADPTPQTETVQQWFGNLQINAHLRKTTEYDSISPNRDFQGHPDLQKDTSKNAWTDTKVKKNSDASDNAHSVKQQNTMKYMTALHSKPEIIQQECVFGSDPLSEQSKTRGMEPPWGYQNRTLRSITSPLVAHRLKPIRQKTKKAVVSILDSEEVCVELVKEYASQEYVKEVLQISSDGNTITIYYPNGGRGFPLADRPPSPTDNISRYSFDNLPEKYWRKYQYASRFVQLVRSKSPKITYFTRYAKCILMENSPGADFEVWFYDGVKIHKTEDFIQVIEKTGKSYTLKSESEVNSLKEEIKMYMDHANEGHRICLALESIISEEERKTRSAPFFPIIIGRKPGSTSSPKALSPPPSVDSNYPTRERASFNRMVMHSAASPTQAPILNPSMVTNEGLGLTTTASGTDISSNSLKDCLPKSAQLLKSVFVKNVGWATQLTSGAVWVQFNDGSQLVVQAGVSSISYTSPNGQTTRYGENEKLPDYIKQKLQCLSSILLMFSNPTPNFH
T17 sequence (P04049 whole entry): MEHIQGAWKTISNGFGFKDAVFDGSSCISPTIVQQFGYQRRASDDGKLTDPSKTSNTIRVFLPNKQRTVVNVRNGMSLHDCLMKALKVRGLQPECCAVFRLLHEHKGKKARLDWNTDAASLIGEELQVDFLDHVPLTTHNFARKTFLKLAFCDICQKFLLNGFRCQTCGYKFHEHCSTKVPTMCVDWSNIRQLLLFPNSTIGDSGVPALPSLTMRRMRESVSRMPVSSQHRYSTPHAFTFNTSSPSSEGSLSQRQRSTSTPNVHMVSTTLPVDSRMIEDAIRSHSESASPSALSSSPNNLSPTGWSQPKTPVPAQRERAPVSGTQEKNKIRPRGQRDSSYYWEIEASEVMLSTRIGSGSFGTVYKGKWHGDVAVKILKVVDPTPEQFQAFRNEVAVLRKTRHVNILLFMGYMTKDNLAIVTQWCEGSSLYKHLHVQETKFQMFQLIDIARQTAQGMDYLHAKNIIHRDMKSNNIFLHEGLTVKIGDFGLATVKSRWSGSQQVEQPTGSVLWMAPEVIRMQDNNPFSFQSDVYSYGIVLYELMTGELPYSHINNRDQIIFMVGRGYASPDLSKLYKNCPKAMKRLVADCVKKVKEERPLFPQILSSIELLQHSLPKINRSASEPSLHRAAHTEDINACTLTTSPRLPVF
T2 sequence (Q96RR4 whole entry): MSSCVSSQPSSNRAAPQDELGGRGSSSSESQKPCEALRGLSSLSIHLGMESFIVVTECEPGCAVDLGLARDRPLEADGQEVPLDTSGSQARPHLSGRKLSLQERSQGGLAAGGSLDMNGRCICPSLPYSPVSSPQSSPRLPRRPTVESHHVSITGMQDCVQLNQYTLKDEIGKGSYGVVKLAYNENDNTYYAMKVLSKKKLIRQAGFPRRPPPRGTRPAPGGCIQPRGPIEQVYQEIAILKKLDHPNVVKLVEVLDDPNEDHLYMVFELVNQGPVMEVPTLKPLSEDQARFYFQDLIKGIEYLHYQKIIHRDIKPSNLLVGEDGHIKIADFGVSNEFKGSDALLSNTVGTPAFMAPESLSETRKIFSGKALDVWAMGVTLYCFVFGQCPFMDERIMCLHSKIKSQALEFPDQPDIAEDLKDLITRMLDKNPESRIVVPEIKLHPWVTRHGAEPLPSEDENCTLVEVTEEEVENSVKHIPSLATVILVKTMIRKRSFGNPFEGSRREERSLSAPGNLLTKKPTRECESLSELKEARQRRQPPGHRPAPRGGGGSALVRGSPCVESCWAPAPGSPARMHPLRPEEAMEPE
T18 sequence (Q13470 whole entry): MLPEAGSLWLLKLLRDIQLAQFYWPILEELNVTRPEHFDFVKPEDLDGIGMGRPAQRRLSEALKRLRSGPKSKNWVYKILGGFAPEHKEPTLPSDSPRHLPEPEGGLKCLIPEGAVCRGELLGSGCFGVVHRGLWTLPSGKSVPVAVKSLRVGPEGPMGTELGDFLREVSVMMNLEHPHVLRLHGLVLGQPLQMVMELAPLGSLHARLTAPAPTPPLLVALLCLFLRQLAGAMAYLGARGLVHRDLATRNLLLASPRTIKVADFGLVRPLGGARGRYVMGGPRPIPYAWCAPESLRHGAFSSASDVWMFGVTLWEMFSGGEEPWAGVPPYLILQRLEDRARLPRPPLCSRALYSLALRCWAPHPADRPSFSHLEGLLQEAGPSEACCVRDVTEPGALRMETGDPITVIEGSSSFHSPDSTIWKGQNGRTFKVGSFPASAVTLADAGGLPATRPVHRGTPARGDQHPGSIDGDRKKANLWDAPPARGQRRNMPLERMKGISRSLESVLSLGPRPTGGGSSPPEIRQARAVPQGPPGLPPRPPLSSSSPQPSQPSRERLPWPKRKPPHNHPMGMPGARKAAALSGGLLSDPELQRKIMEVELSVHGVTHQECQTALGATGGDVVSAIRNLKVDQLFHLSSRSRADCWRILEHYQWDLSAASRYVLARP
Sequence of RPS6KA5(Kin.Dom.2-C-terminal) (O75582 388-802 limits assumed): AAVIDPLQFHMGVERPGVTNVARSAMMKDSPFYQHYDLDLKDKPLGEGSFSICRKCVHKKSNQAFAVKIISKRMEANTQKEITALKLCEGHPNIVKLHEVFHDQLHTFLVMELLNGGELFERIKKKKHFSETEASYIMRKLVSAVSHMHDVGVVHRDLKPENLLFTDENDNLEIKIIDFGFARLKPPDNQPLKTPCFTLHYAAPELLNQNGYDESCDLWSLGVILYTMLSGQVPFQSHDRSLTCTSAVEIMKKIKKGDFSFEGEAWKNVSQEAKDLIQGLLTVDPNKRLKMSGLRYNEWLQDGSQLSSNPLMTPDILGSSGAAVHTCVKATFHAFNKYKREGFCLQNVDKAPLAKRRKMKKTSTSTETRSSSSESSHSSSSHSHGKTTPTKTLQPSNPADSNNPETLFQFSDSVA
T19 sequence (Q06418 41-890): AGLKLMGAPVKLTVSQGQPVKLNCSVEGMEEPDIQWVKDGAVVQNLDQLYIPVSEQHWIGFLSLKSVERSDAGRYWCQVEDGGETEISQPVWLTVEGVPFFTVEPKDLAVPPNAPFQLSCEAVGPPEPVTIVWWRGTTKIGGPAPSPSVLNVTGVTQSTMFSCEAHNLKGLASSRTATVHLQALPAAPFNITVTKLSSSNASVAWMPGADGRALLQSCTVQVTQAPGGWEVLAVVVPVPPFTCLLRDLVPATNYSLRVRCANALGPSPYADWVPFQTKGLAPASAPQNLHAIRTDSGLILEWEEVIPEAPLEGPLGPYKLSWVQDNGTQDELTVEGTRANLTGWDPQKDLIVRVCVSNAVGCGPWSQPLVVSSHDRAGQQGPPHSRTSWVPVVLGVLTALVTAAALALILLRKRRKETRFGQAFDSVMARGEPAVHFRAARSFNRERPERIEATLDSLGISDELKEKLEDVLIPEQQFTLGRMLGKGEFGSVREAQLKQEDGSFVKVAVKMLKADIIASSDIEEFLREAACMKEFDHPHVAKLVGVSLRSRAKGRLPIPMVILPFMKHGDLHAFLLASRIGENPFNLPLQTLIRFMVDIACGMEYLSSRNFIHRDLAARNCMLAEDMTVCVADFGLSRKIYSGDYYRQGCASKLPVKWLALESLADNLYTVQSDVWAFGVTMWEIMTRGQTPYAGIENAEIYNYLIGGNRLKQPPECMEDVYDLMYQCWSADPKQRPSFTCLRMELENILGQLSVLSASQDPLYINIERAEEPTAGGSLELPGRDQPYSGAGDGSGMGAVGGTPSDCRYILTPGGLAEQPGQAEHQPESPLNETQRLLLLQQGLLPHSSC

N[C@H]1CC[C@H](Nc2cc(-c3cccc(NCc4cccc(F)c4)n3)c(Cl)cn2)CC1 [i-CDK9, N2′-(trans-4-aminocyclohexyl)-5′-chloro-N6-(3-fluorobenzyl)-2,4′-bipyridine-2′,6-diamine]
remaining binding at 1 µM (CAMK1G; 1 µM i-CDK9): 92%
remaining binding at 10 µM (CAMK1G; 10 µM i-CDK9): 100%
remaining binding at 1 µM (CAMKK2; 1 µM i-CDK9): 73%
remaining binding at 10 µM (CAMKK2; 10 µM i-CDK9): 100%
remaining binding at 1 µM (CLK1; 1 µM i-CDK9): 14%
remaining binding at 10 µM (CLK1; 10 µM i-CDK9): 0.55%
remaining binding at 1 µM (EPHB3; 1 µM i-CDK9): 100%
remaining binding at 10 µM (EPHB3; 10 µM i-CDK9): 95%
remaining binding at 1 µM (ERBB2; 1 µM i-CDK9): 88%
remaining binding at 10 µM (ERBB2; 10 µM i-CDK9): 100%
remaining binding at 1 µM (ERK5; 1 µM i-CDK9): 100%
remaining binding at 10 µM (ERK5; 10 µM i-CDK9): 92%
remaining binding at 1 µM (IKK-epsilon; 1 µM i-CDK9): 95%
remaining binding at 10 µM (IKK-epsilon; 10 µM i-CDK9): 100%
% Retention on Solid Support (IRAK4): 93%
% Retention on Solid Support (ITK; 1 µM i-CDK9): 100%
% Retention on Solid Support (ITK; 10 µM i-CDK9): 86%
remaining binding at 1 µM (KIT(D816V); 1 µM i-CDK9): 100%
remaining binding at 10 µM (KIT(D816V); 10 µM i-CDK9): 100%
remaining binding at 1 µM (KIT(L576P); 1 µM i-CDK9): 91%
remaining binding at 10 µM (KIT(L576P); 10 µM i-CDK9): 100%
remaining binding at 1 µM (MAPKAPK5; 1 µM i-CDK9): 100%
remaining binding at 10 µM (MAPKAPK5; 10 µM i-CDK9): 94%
remaining binding at 1 µM (NDR1; 1 µM i-CDK9): 100%
remaining binding at 10 µM (NDR1; 10 µM i-CDK9): 88%
remaining binding at 1 µM (NEK5; 1 µM i-CDK9): 88%
remaining binding at 10 µM (NEK5; 10 µM i-CDK9): 100%
remaining binding at 1 µM (PAK2; 1 µM i-CDK9): 98%
remaining binding at 10 µM (PAK2; 10 µM i-CDK9): 91%
remaining binding at 1 µM (PIK3CA(M1043I); 1 µM i-CDK9): 100%
remaining binding at 10 µM (PIK3CA(M1043I); 10 µM i-CDK9): 75%
remaining binding at 1 µM (PLK4; 1 µM i-CDK9): 89%
remaining binding at 10 µM (PLK4; 10 µM i-CDK9): 91%
remaining binding at 1 µM (RAF1; 1 µM i-CDK9): 100%
remaining binding at 10 µM (RAF1; 10 µM i-CDK9): 100%
remaining binding at 1 µM ([1]; 1 µM i-CDK9): 100%
remaining binding at 10 µM ([1]; 10 µM i-CDK9): 74%
remaining binding at 1 µM ([2]; 1 µM i-CDK9): 100%
remaining binding at 10 µM ([2]; 10 µM i-CDK9): 100%
remaining binding at 1 µM (S6K1): 100%
remaining binding at 1 µM (TNK1; 1 µM i-CDK9): 100%
remaining binding at 10 µM (TNK1; 10 µM i-CDK9): 65%
remaining binding at 1 µM (TYRO3; 1 µM i-CDK9): 71%
remaining binding at 10 µM (TYRO3; 10 µM i-CDK9): 100%
% Retention on Solid Support (ULK1; 1 µM i-CDK9): 80%
% Retention on Solid Support (ULK1; 10 µM i-CDK9): 79%
